Data: patent US10795272B2, “Triphenylamine derivative, and charge transport material and electrophotographic photoreceptor using the same” (TAKASAGO INTERNATIONAL CORPORATION, priority 2016, dated 2020)

Columns and labels:
[1] = Solubility in tetrahydrofuran; type: physicochemical; conditions: 25° C.; weight completely dissolved in 1 g of tetrahydrofuran
Procedure: Compound (1-1) was dissolved in 1 g of tetrahydrofuran at 25° C.
In the same manner as in Example 14, experiments were conducted by using Compound (1-4) or (1-9).
In the same manner as in Example 14, experiments were conducted by using Comparative Compound (5) which was a compound described in Japanese Patent Application Publication No. Hei 3-149560.

SMILES	Solubility [1]	melting point
C(=Cc1ccc(N(c2ccccc2)c2ccc(C=C(c3ccccc3)c3ccccc3)cc2)cc1)c1ccc(C=Cc2ccc(N(c3ccccc3)c3ccc(C=C(c4ccccc4)c4ccccc4)cc3)cc2)cc1 [Comparative Compound (5), reference compound]	0.03 g/g tetrahydrofuran	–
Cc1ccc(N(c2ccc(/C=C/c3ccc(/C=C/C=C(c4ccccc4)c4ccccc4)cc3)cc2)c2ccc(/C=C/c3ccc(/C=C/c4ccc(N(c5ccc(C)cc5)c5ccc(/C=C/c6ccc(/C=C/C=C(c7ccccc7)c7ccccc7)cc6)cc5)cc4)cc3)cc2)cc1 [Compound (1-1)]	0.16 g/g tetrahydrofuran	178 to 180 °C
C(/C=C/c1ccc(/C=C/c2ccc(N(c3ccccc3)c3ccc(/C=C/c4ccc(/C=C/c5ccc(N(c6ccccc6)c6ccc(/C=C/c7ccc(/C=C/C=C(c8ccccc8)c8ccccc8)cc7)cc6)cc5)cc4)cc3)cc2)cc1)=C(c1ccccc1)c1ccccc1 [Compound (1-4)]	0.13 g/g tetrahydrofuran	162 to 164 °C
Cc1ccc(N(c2ccc(/C=C/c3ccc(/C=C/C=C(c4ccccc4)c4ccccc4)cc3)cc2)c2ccc(/C=C/c3ccc(/C=C/c4ccc(N(c5ccc(/C=C/c6ccc(/C=C/C=C(c7ccccc7)c7ccccc7)cc6)cc5)c5ccc(C)cc5C)cc4)cc3)cc2)c(C)c1 [Compound (1-7)]	–	161 to 163 °C

More lines, now with the values ahead:

Solubility [1]	melting point	SMILES
0.14 g/g tetrahydrofuran	222 to 224 °C	COc1ccc(N(c2ccc(/C=C/c3ccc(/C=C/C=C(c4ccccc4)c4ccccc4)cc3)cc2)c2ccc(/C=C/c3ccc(/C=C/c4ccc(N(c5ccc(/C=C/c6ccc(/C=C/C=C(c7ccccc7)c7ccccc7)cc6)cc5)c5ccc(OC)cc5)cc4)cc3)cc2)cc1 [Compound (1-9)]
–	255 to 257 °C	Cc1ccc(C(=C/C=C/c2ccc(/C=C/c3ccc(N(c4ccc(/C=C/c5ccc(/C=C/c6ccc(N(c7ccc(/C=C/c8ccc(/C=C/C=C(c9ccc(C)cc9)c9ccc(C)cc9)cc8)cc7)c7ccc(C)cc7C)cc6)cc5)cc4)c4ccc(C)cc4C)cc3)cc2)c2ccc(C)cc2)cc1 [Compound (1-17)]
